In brackets after ≈: the same amount, converted by molar mass.
Each molecule was assayed on E. Coli 324 (assay: In vitro antibacterial activity by the two-fold agar-plate dilution method). Conditions: Escherichia coli, HI-agar, overnight culture 10^8 viable cells per ml., 37° C. for 20 hours, read-out: MIC (minimal inhibitory concentration).
Type: cell-based
Experimental: In vitro antibacterial activity was determined by the two-fold agar-plate dilution method as described below. One loopful of an overnight culture of each test strain in Trypticase-soy broth (10^8 viable cells per ml.) was streaked on heart infusion agar (HI-agar) containing graded concentrations of antibiotics, and the minimal inhibitory concentration (MIC) was expressed in terms of μg/ml. after incubation at 37° C. for 20 hours.

| SMILES | MIC [µg/mL] |
| --- | --- |
| Cn1nnnc1SCC1=C(C(=O)O)N2C(=O)C(NC(=O)C(=O)c3csc(N)n3)C2SC1 (centres unmarked) [(1)] | 0.05 (≈ 0.104 µM) |
| Nc1nc(C(=O)C(=O)NC2C(=O)N3C(C(=O)O)=C(CSc4nncs4)CSC23)cs1 (centres unmarked) [(2)] | 0.05 (≈ 0.103 µM) |
| Cc1nnc(SCC2=C(C(=O)O)N3C(=O)C(NC(=O)C(=O)c4csc(N)n4)C3SC2)s1 (centres unmarked) [(3)] | 0.05 (≈ 0.1 µM) |

Results, then the molecule that gave them:

| MIC [µg/mL] | SMILES |
| --- | --- |
| 0.05 (≈ 0.104 µM) | Cc1nnc(SCC2=C(C(=O)O)N3C(=O)C(NC(=O)C(=O)c4csc(N)n4)C3SC2)o1 (centres unmarked) [(4)] |
| 0.05 (≈ 0.104 µM) | Cn1cnnc1SCC1=C(C(=O)O)N2C(=O)C(NC(=O)C(=O)c3csc(N)n3)C2SC1 (centres unmarked) [(5)] |

Source: patent US4303655A, “3,7-Disubstituted-3-cephem-4-carboxylic acid compounds” (Fujisawa Pharmaceutical Co., Ltd., priority 1976, dated 1981)
